Laboratory results reported in patent US4366158A, “1-(8-Quinolyl)-2-pyrrolidone and its pharmaceutical compositions” (Burroughs Wellcome Co., priority 1979, dated 1982).
Like-named read-outs stand apart in the source and are kept apart here.

How the values were obtained:
rat [1] = assay: Trypsin Hyperalgesic Assay (Modified THA); assay type: in vivo; conditions: po
Protocol: (§1) The analgesic agents were administered 30 minutes after the administration of trypsin. In addition, a modification of Vinegar's published assay was carried out, comprising the administration of the analgesic agent preceding subplantar injection of trypsin (0.10 ml of 10% solution of trypsin in pyrogen-free water) by 15 minutes. In both THA's, pain scores were determined 60 minutes after trypsin injection.

rat [2] = assay: Acetic Acid Writhing Test (AAWT), rat; assay type: in vivo; conditions: po
Excerpt: (§2) Using the procedure described by Koster et al. in Fed. […] 26, Anti-inflammatory Drugs, Ed.

rat [3] = assay: Yeast-Induced Hyperthermia Assay; assay type: in vivo; conditions: for antipyretic and hypothermic activity: rat; for ED50: po
Excerpt: The Yeast-Induced Hyperthermia Assay was used according to the procedure described by Khalili-Varasteh et al. in Arch. Int. Pharmacodyn.

Toxicity Test = conditions: rat, in vivo, po
Protocol: Four non-fasted male rats of 160-250 gram body weight was used for each dose level. The compound to be tested was administered by the indicated route and the symptom onset time, the intensity of the effect and the duration during a 4 hour observation period were recorded. The LD50 estimation was based on a 7 day observation and was determined by the method of Miller and Tainter (Proc. Soc. Exp. Biol. Med. 57, 261 (1944)).

rat [4] = assay: Carrageenin Pleurisy Assay (CPA), 3 hour exudate volume; assay type: in vivo; conditions: for ED50: po, read-out: ED50, 3 hr. Vol
rat [5] = assay: Carrageenin Pleurisy Assay (CPA), mobilized neutrophils at 3 hours; assay type: in vivo; conditions: Neutrophil, po, read-out: ED50, 3 hr. Cells
Protocol: Following the procedure described by Vinegar et al. in Proc Soc Exp Biol Med 151, 556, (1976), the acute anti-inflammatory activity of the compound of formula (I) was compared with that of known anti-inflammatory drugs in the rat. Two assays were performed: in the first, the average 3 hour exudate volume for each drug-treated group was determined and the % inhibition relative to solvent-fed control animals calculated, the ED50 being the dose required to reduce the 3 hour exudate volume by 50%; in the second, the number of mobilized neutrophils was quantified and the % inhibition relative to solvent-fed control animals calculated, the ED50 being the dose required to reduce the number of neutrophils mobilized at 3 hours by 50%.

rat [6] = assay: Trypsin Hyperalgesic Assay (Published THA); assay type: in vivo; conditions: for ED50: po, 0.5 h
Protocol: as §1

mouse = assay: Acetic Acid Writhing Test (AAWT), mouse; assay type: in vivo; conditions: po
Excerpt: as §2

rat [7] = assay type: in vivo
[8] = acetic acid writhing assays (species not stated); assay type: in vivo; conditions: in words
rat [9] = assay: Carrageenin Hindlimb Oedema Assay (CHOA); assay type: in vivo
lipoxygenase = assay: inhibition of lipoxygenase; assay type: biochemical
solubility of the base = assay type: physicochemical
rat [10] = assay: anti-inflammatory action in the rat, in words (carrageenin pleurisy and carrageenin hindlimb oedema assays); assay type: in vivo
brain = assay: analgesic activity when injected directly into the brain; assay type: in vivo
morphine receptor = assay: binding to the morphine receptor
peroxidase = assay: inhibition of peroxidase; assay type: biochemical
[11] = system: prostaglandin cyclooxygenase; assay: inhibition of prostaglandin cyclooxygenase; assay type: biochemical
[12] = inhibition of analgesic activity by naloxone; assay type: in vivo
[13] = Modified THA, rat, p.o., agent 15 minutes before trypsin, read-out: ED50
[14] = AAWT, rat, p.o., read-out: ED50
[15] = Rat Yeast Hyperthermia, p.o., read-out: ED50
[16] = CPA, 3 hour exudate volume reduced by 50%, rat, p.o.
[17] = CPA, neutrophils mobilized at 3 hours reduced by 50%, rat, p.o.
[18] = Published THA, rat, p.o., agent 30 minutes after trypsin, read-out: ED50
[19] = male rats, 7 day observation, method of Miller and Tainter, read-out: LD50

For CC(=O)Nc1ccc(O)cc1 [Acetaminophen], the ED50 (rat [1]; [13]) was 95 ± 17.2 mg/kg, the ED50 (rat [2]; [14]) was 127 ± 16.6 mg/kg and the “antipyretic and hypothermic activity” value (rat [3]; in words) was “antipyretic and hypothermic activity”. It also gave an ED50 (rat [3]; [15]) of 72 ± 8.6 mg/kg, an LD50 at 168 h (Toxicity Test) of 2000 mg/kg and an NOAEL at 4 h (Toxicity Test) of 250 mg/kg. For the same compound, the “duration of acute anti-inflammatory activity (time of drug administration prior to carrageenin in which inhibition of 3 hour pleural exudate volume declined to 40%)” value (rat [4]; CPA, 220 mg/kg (p.o.)) was “over 2 hours”, the ED50 (rat [4]; [16]) was 172 ± 22.4 mg/kg and the ED50 (rat [5]; [17]) was 189 ± 48.6 mg/kg. For the same compound, the ED50 (rat [6]; [18]) was 360 mg/kg.

In the case of CC(=O)Oc1ccccc1C(=O)O [Aspirin], the ED50 (mouse; Mus musculus) is reported as 137 ± 16.9 mg/kg, the ED50 (rat [1]; Rattus norvegicus) is reported as > 180 mg/kg and the gastric damage (rat [7]; single oral dose of 30 mg/kg) is reported as “produces ulcers and haemorrhages”. For the same compound, the “activity in the former (acetic acid writhing) assay” value [8] was “inactive in the former assay”, the ED50 (rat [2]; Rattus norvegicus) was 21 ± 3.4 mg/kg and the ED50 (rat [3]) was 50 ± 8.1 mg/kg. It also gave an NOAEL at 4 h (Toxicity Test; male rats, 4 hour observation, read-out: No symptom dose) of 10 mg/kg, an LD50 at 168 h (Toxicity Test; [19]) of 1610 mg/kg and an ED50 (rat [4]; Rattus norvegicus, 3 h) of 28 ± 3.2 mg/kg. The ED50 (rat [5]; Rattus norvegicus, 3 h) was 75 ± 7.5 mg/kg, the ED50 (rat [9]; Rattus norvegicus) was 145 ± 74 mg/kg and the ED50 (rat [6]; Rattus norvegicus) was > 180 mg/kg.

In the case of O=C1CCCN1c1cccc2cccnc12 [Compound of Formula (I), 1-(8-quinolyl)-2-pyrrolidinone], the ED50 (mouse; AAWT, mouse, p.o., read-out: ED50) is reported as 99 ± 9.8 mg/kg, the ED50 (rat [1]; [13]) is reported as 13 ± 1.8 mg/kg and the gastric damage (rat [7]; rat, 5 days of oral dosing at 40 mg/kg) is reported as “does not produce gastric damage”. The gastric damage (rat [7]; rat, single oral dose of 200 mg/kg) was “does not produce gastric damage”, the ED50 (rat [2]; [14]) was 22 ± 2.1 mg/kg and the inhibition of lipoxygenase (lipoxygenase) was “does not inhibit”. For the same compound, the “effect on body temperature of rats with a normal temperature” value (rat [3]; in words, higher dose levels) was “lowers the body temperature of rats”, the “antipyretic and hypothermic activity” value (rat [3]; in words) was “antipyretic and hypothermic activity” and the ED50 (rat [3]; [15]) was 22 ± 3.9 mg/kg. The solubility (solubility of the base; in 0.1 N HCl) was > 50 mg/mL, the solubility (solubility of the base; in water) was > 50 mg/mL and the NOAEL at 4 h (Toxicity Test) was 250 mg/kg. The LD50 at 168 h (Toxicity Test; [19]) was 1650 mg/kg, the anti-inflammatory activity (rat [10]; rat) was “potent, long-lasting acute anti-inflammatory activity” and the “anti-inflammatory effect compared with acetaminophen” value (rat [10]; versus acetaminophen) was “more potent and to have a longer lasting anti-inflammatory effect”. For the same compound, the “analgesic activity on injection into the brain” value (brain) was “inactive when injected directly into the brain”, the “binding to the morphine receptor” value (morphine receptor) was “does not appreciably bind to the morphine receptor” and the “duration of acute anti-inflammatory activity (time of drug administration prior to carrageenin in which inhibition of 3 hour pleural exudate volume declined to 40%)” value (rat [4]; CPA, 80 mg/kg (p.o.)) was 9 h. The ED50 (rat [4]; [16]) was 20 ± 4.3 mg/kg, the ED50 (rat [5]; [17]) was 37 ± 10.4 mg/kg and the ED50 (rat [9]; CHOA, rat, read-out: ED50) was 54 ± 31.6 mg/kg. For the same compound, the ED50 (rat [6]; [18]) was 37 ± 7.8 mg/kg, the “duration of analgesic activity (time of drug administration prior to trypsin in which inhibition of hyperalgesia declined to 40%)” value (rat [6]; published THA, 75 mg/kg (p.o.)) was 10.8 h and the inhibition of peroxidase (peroxidase) was “does not inhibit”. For the same compound, the “inhibition of prostaglandin cyclooxygenase” value [11] was “does not inhibit” and the “inhibition of analgesic activity by naloxone” value [12] was “not inhibited by naloxone”.
